Results reported in patent publication US20040180895A1, “Use of a pyridazinone derivative” (priority 2001, published 2004).

How the values were obtained:
[1] = Elimination half-life of the active ingredient in man; conditions: human, in vivo
Excerpt: The active ingredient of the invention may be administered periodically, e.g. weekly or biweekly, or daily or several times a day, depending on the patient's needs. […] Therefore, a periodical treatment, e.g. weekly, may be satisfactory.

[2] = Plasma concentrations following 24 h levosimendan infusion in heart failure patients; format: in vivo, human; conditions: levosimendan 0.2 μg/kg/min for 24 hours; for half-life: human, plasma, intravenous, 0.2 ug/kg, FIG. 1, read-out: elimination half-life (converted)
Method: Plasma concentrations of levosimendan and its active metabolite (R)-N-[4-(1,4,5,6-tetrahydro-4-methyl-6-oxo-3-pyridazinyl)phenyl]acetamide (OR-1896) following administration of 0.2 μg/kg/min of levosimendan for 24 hours in heart failure patients are shown in FIG. 1.

plasma proteins = test: Plasma protein binding; format: in vitro ADME; conditions: read-out: bound to plasma proteins (converted)
Excerpt: It is known that the favourable hemodynamic effects following intravenous administration of levosimendan are seen considerably longer than levosimendan concentrations are observed in plasma. […] However, it has also been discovered that only about 30% of the active metabolite is bound to plasma proteins whereas as much as 98% of levosimendan is bound to plasma proteins. Therefore, the active free concentration of the active metabolite in plasma is proportionally much higher than that of levosimendan.

[3] = test system: congestive heart failure patients; test: All-cause mortality (Kaplan Meier) in congestive heart failure patients, dobutamine controlled studies; format: in vivo, human; conditions: intravenous levosimendan 0.1-0.2 μg/kg/min for 24 hours vs dobutamine; FIG. 2

| half-life [1] | time plasma concentrations are detectable after the infusion ([2]; FIG. 1) | SMILES | half-life [2] | fraction unbound (plasma proteins) | plasma concentrations after discontinuation of infusion ([2]; one day after discontinuation) | all-cause mortality (0-14 days), Kaplan Meier survival curves [3] |
| --- | --- | --- | --- | --- | --- | --- |
| ~72 h |  | CC(=O)Nc1ccc(C2=NNC(=O)CC2C)cc1 (centres unmarked) [(I), N-[4-(1,4,5,6-tetrahydro-4-methyl-6-oxo-3-pyridazinyl)phenyl]acetamide] |  |  |  |  |
|  | 12 days | CC(=O)Nc1ccc(C2=NNC(=O)C[C@H]2C)cc1 [OR-1896, (R)-N-[4-(1,4,5,6-tetrahydro-4-methyl-6-oxo-3-pyridazinyl)phenyl]acetamide] | ~77 h | ~0.7 |  |  |
|  |  | C[C@@H]1CC(=O)NN=C1c1ccc(NN=C(C#N)C#N)cc1 [levosimendan] | ~1.3 h | 0.02 | not detectable one day after the discontinuation of infusion | survival curves are clearly diverging throughout the observation period |
